Results taken from article PMC5218480 (PLoS ONE, 2017).

System: MV-4-11 cells
Test: Gene expression microarray analysis (Affymetrix PrimeView) and GSEA
Type: cell-based, human
Set-up: RFU PODN (11730768_x_at) / Fold change /veh PODN (11730768_x_at) / RFU LINC00158 (11744669_a_at) / Fold change /veh LINC00158 (11744669_a_at) / RFU DUSP10 (11751237_a_at) / Fold change /veh DUSP10 (11751237_a_at) / RFU ID3 (11757404_x_at) / Fold change /veh ID3 (11757404_x_at) / RFU PLEKHG5 (11737974_s_at) / Fold change /veh PLEKHG5 (11737974_s_at) / RFU LRRC4B (11730491_at) / Fold change /veh LRRC4B (11730491_at) / RFU GIMAP4 (11747438_a_at) / Fold change /veh GIMAP4 (11747438_a_at) / RFU KRT8 (11758183_x_at) / Fold change /veh KRT8 (11758183_x_at) / RFU CNN1 (11734310_a_at) / Fold change /veh CNN1 (11734310_a_at) / RFU VPS37D (11726825_at) / Fold change /veh VPS37D (11726825_at) / RFU C10orf10 (11716522_x_at) / Fold change /veh C10orf10 (11716522_x_at) / RFU KIR2DL2 /// KIR2DL4 /// KIR2DL5A /// KIR2DL5B /// KIR2DS1 /// KIR2DS2 /// KIR2DS3 /// KIR2DS4 /// KIR3DL3 /// KIR3DL3 /// KIR3DS1 (11738374_at) / Fold change /veh KIR2DL2 /// KIR2DL4 /// KIR2DL5A /// KIR2DL5B /// KIR2DS1 /// KIR2DS2 /// KIR2DS3 /// KIR2DS4 /// KIR3DL3 /// KIR3DL3 /// KIR3DS1 (11738374_at) / RFU C1QL1 (11718748_at) / Fold change /veh C1QL1 (11718748_at) / RFU TMPRSS4 (11747572_a_at) / Fold change /veh TMPRSS4 (11747572_a_at) / RFU HAMP (11756126_x_at) / Fold change /veh HAMP (11756126_x_at) / RFU RNFT2 (11725882_a_at) / Fold change /veh RNFT2 (11725882_a_at) / RFU NR4A2 (11747474_a_at) / Fold change /veh NR4A2 (11747474_a_at) / RFU ABCC12 (11746883_a_at) / Fold change /veh ABCC12 (11746883_a_at) / RFU TMEM136 (11760407_x_at) / Fold change /veh TMEM136 (11760407_x_at) / RFU CLDN22 /// WWC2 (11732394_at) / Fold change /veh CLDN22 /// WWC2 (11732394_at) / RFU HLA-DPB1 (11760878_x_at) / Fold change /veh HLA-DPB1 (11760878_x_at) / RFU SPINT1 (11716480_a_at) / Fold change /veh SPINT1 (11716480_a_at) / RFU GAP43 (11754022_s_at) / Fold change /veh GAP43 (11754022_s_at) / RFU A4GNT (11735810_at) / Fold change /veh A4GNT (11735810_at) / RFU PRB3 (11715151_x_at) / Fold change /veh PRB3 (11715151_x_at) / RFU TUBB4B (11761932_at) / Fold change /veh TUBB4B (11761932_at) / RFU CAPN14 (11732068_a_at) / Fold change /veh CAPN14 (11732068_a_at) / RFU TMCC2 (11721928_a_at) / Fold change /veh TMCC2 (11721928_a_at) / RFU IRGQ (11745062_a_at) / Fold change /veh IRGQ (11745062_a_at) / RFU FAM174B (11720279_a_at) / Fold change /veh FAM174B (11720279_a_at) / RFU TMPRSS4 (11748680_a_at) / Fold change /veh TMPRSS4 (11748680_a_at) / RFU FAM212B (11763350_a_at) / Fold change /veh FAM212B (11763350_a_at) / RFU PLEKHG5 (11743358_a_at) / Fold change /veh PLEKHG5 (11743358_a_at) / RFU ZSCAN30 (11745921_a_at) / Fold change /veh ZSCAN30 (11745921_a_at) / RFU CMKLR1 (11741424_a_at) / Fold change /veh CMKLR1 (11741424_a_at) / RFU LOC101060620 /// MAPK8IP1 (11723275_at) / Fold change /veh LOC101060620 /// MAPK8IP1 (11723275_at) / RFU SPTSSB (11747773_x_at) / Fold change /veh SPTSSB (11747773_x_at) / RFU PRSS12 (11739890_at) / Fold change /veh PRSS12 (11739890_at) / RFU BIN1 (11741810_x_at) / Fold change /veh BIN1 (11741810_x_at) / RFU WNT11 (11732464_a_at) / Fold change /veh WNT11 (11732464_a_at) / RFU C10orf10 (11716521_a_at) / Fold change /veh C10orf10 (11716521_a_at) / RFU C5orf56 (11738089_at) / Fold change /veh C5orf56 (11738089_at) / RFU CYB561 (11721691_x_at) / Fold change /veh CYB561 (11721691_x_at) / RFU ANKRD19P (11752326_a_at) / Fold change /veh ANKRD19P (11752326_a_at) / RFU OR2T12 /// OR2T33 /// OR2T8 (11738714_s_at) / Fold change /veh OR2T12 /// OR2T33 /// OR2T8 (11738714_s_at) / RFU VCAN (11748164_a_at) / Fold change /veh VCAN (11748164_a_at) / RFU JSRP1 (11732532_at) / Fold change /veh JSRP1 (11732532_at) / RFU KRTAP10-11 (11738290_x_at) / Fold change /veh KRTAP10-11 (11738290_x_at) / RFU MYO3A (11730013_a_at) / Fold change /veh MYO3A (11730013_a_at) / RFU EBF3 (11725865_a_at) / Fold change /veh EBF3 (11725865_a_at) / RFU CAMK2N1 (11719241_x_at) / Fold change /veh CAMK2N1 (11719241_x_at) / RFU C5orf56 (11738088_a_at) / Fold change /veh C5orf56 (11738088_a_at) / RFU OLFML3 (11715873_a_at) / Fold change /veh OLFML3 (11715873_a_at) / RFU LOC100653217 /// NTM (11731650_a_at) / Fold change /veh LOC100653217 /// NTM (11731650_a_at) / RFU MAPK11 (11762145_a_at) / Fold change /veh MAPK11 (11762145_a_at) / RFU FIZ1 (11724087_x_at) / Fold change /veh FIZ1 (11724087_x_at) / RFU OASL (11726364_x_at) / Fold change /veh OASL (11726364_x_at) / RFU SOX15 (11748057_x_at) / Fold change /veh SOX15 (11748057_x_at) / RFU CD79A (11719716_a_at) / Fold change /veh CD79A (11719716_a_at) / RFU HIST1H1D (11736915_at) / Fold change /veh HIST1H1D (11736915_at) / RFU CASKIN2 (11723855_a_at) / Fold change /veh CASKIN2 (11723855_a_at) / RFU LOC730098 (11760151_x_at) / Fold change /veh LOC730098 (11760151_x_at) / RFU OR4N2 (11742367_at) / Fold change /veh OR4N2 (11742367_at) / RFU PRRT2 (11749266_a_at) / Fold change /veh PRRT2 (11749266_a_at) / RFU SNX32 (11753110_a_at) / Fold change /veh SNX32 (11753110_a_at) / RFU CDHR5 (11726645_a_at) / Fold change /veh CDHR5 (11726645_a_at) / RFU RCAN1 (11760418_a_at) / Fold change /veh RCAN1 (11760418_a_at) / RFU FAM167A (11723789_a_at) / Fold change /veh FAM167A (11723789_a_at) / RFU FAM26E (11764081_at) / Fold change /veh FAM26E (11764081_at) / RFU ISYNA1 (11749810_s_at) / Fold change /veh ISYNA1 (11749810_s_at) / RFU ACY1 (11761880_at) / Fold change /veh ACY1 (11761880_at) / RFU 11764098_at / Fold change /veh 11764098_at / RFU SAMD14 (11745864_x_at) / Fold change /veh SAMD14 (11745864_x_at) / RFU NPB (11741838_a_at) / Fold change /veh NPB (11741838_a_at) / RFU TMPRSS6 (11731388_a_at) / Fold change /veh TMPRSS6 (11731388_a_at) / RFU KRTAP10-2 (11738614_at) / Fold change /veh KRTAP10-2 (11738614_at) / RFU ARHGAP8 /// PRR5-ARHGAP8 (11727945_x_at) / Fold change /veh ARHGAP8 /// PRR5-ARHGAP8 (11727945_x_at) / RFU KRTAP5-7 /// NADSYN1 (11734609_at) / Fold change /veh KRTAP5-7 /// NADSYN1 (11734609_at) / RFU RASL12 (11751679_a_at) / Fold change /veh RASL12 (11751679_a_at) / RFU CDKN2B (11736163_a_at) / Fold change /veh CDKN2B (11736163_a_at) / RFU PRF1 (11729649_at) / Fold change /veh PRF1 (11729649_at) / RFU, ZNF638 /// ZNF638-IT1 / Fold change vs veh, ZNF638 /// ZNF638-IT1 / RFU, PANK3 / Fold change vs veh, PANK3 / RFU, SH3YL1 / Fold change vs veh, SH3YL1 / RFU, ZEB2 / Fold change vs veh, ZEB2 / RFU, NRIP1 / Fold change vs veh, NRIP1 / RFU, PTTG1IP / Fold change vs veh, PTTG1IP / RFU, CAPN2 / Fold change vs veh, CAPN2 / RFU, MED14 / Fold change vs veh, MED14 / RFU, SNORA58 / Fold change vs veh, SNORA58 / RFU, C1orf63 / Fold change vs veh, C1orf63 / RFU, LRRFIP1 / Fold change vs veh, LRRFIP1 / RFU, NDUFAF7 / Fold change vs veh, NDUFAF7 / RFU, SLC12A2 / Fold change vs veh, SLC12A2 / RFU, IBTK / Fold change vs veh, IBTK / RFU, ESF1 / Fold change vs veh, ESF1 / Fold change vs veh, TMEM50B / RFU, TAOK1 / Fold change vs veh, TAOK1 / RFU, ACBD3 / Fold change vs veh, ACBD3 / RFU, TMA16 / Fold change vs veh, TMA16 / RFU, RWDD3 / Fold change vs veh, RWDD3 / RFU, BCAT1 / Fold change vs veh, BCAT1 / RFU, EDEM3 / Fold change vs veh, EDEM3 / RFU, TMEM33 / Fold change vs veh, TMEM33 / RFU, WDR75 / Fold change vs veh, WDR75 / RFU, AHCTF1 / Fold change vs veh, AHCTF1 / RFU, TFRC / Fold change vs veh, TFRC / RFU, ZDHHC17 / Fold change vs veh, ZDHHC17 / RFU, NOM1 / Fold change vs veh, NOM1 / RFU, ARL8B / Fold change vs veh, ARL8B / RFU, ZBTB11 / Fold change vs veh, ZBTB11 / RFU, TAMM41 / Fold change vs veh, TAMM41 / RFU, KIAA1704 /// LOC100996395 / Fold change vs veh, KIAA1704 /// LOC100996395 / RFU, ING1 / Fold change vs veh, ING1 / RFU, TRMT61B / Fold change vs veh, TRMT61B / RFU, FUBP3 / Fold change vs veh, FUBP3 / RFU, TP53 / Fold change vs veh, TP53 / RFU, TNKS2 / Fold change vs veh, TNKS2 / RFU, ZFP14 / Fold change vs veh, ZFP14 / RFU, ACTR2 / Fold change vs veh, ACTR2 / RFU, PPP3R1 / Fold change vs veh, PPP3R1 / RFU, PIK3R1 / Fold change vs veh, PIK3R1 / RFU, HNRNPA1 / Fold change vs veh, HNRNPA1 / RFU, RNF170 / Fold change vs veh, RNF170 / RFU, ZNF28 / Fold change vs veh, ZNF28 / RFU, RNGTT / Fold change vs veh, RNGTT / RFU, OGT / Fold change vs veh, OGT / RFU, BRD1 / Fold change vs veh, BRD1 / RFU, MARS / Fold change vs veh, MARS / RFU, ZNF655 / Fold change vs veh, ZNF655 / RFU, FAHD1 / Fold change vs veh, FAHD1 / RFU, BDP1 / Fold change vs veh, BDP1 / RFU, LRRCC1 / Fold change vs veh, LRRCC1 / RFU, ARID1A / Fold change vs veh, ARID1A / RFU, ZNF146 / Fold change vs veh, ZNF146 / RFU, ZNF330 / Fold change vs veh, ZNF330 / RFU, GPN3 / Fold change vs veh, GPN3 / RFU, C9orf123 / Fold change vs veh, C9orf123 / RFU, N4BP2L2 / Fold change vs veh, N4BP2L2 / RFU, ARFIP1 / Fold change vs veh, ARFIP1 / RFU, FAM179B / Fold change vs veh, FAM179B / RFU, BCL10 / Fold change vs veh, BCL10 / RFU, UHRF1BP1L / Fold change vs veh, UHRF1BP1L / RFU, BET1 / Fold change vs veh, BET1 / RFU, CNOT2 / Fold change vs veh, CNOT2 / RFU, ZNF268 / Fold change vs veh, ZNF268 / Fold change vs veh, ZNF507 / RFU, DGCR2 / Fold change vs veh, DGCR2 / RFU, WDSUB1 / Fold change vs veh, WDSUB1 / Fold change vs veh, HSP90B1 /// MIR3652 / RFU, ADSS / Fold change vs veh, ADSS / RFU, GK / Fold change vs veh, GK / RFU, ZNF148 / Fold change vs veh, ZNF148 / RFU, TAF9 / Fold change vs veh, TAF9 / RFU, SLC1A5 / Fold change vs veh, SLC1A5 / RFU, SLMO2 / Fold change vs veh, SLMO2 / RFU, ABCC4 / Fold change vs veh, ABCC4 / RFU, LOC101060439 /// RAP1B / Fold change vs veh, LOC101060439 /// RAP1B / RFU, RFX7 / Fold change vs veh, RFX7 / RFU, GTPBP10 / Fold change vs veh, GTPBP10 / RFU, CNEP1R1 / Fold change vs veh, CNEP1R1 / RFU, BIVM-ERCC5 /// ERCC5 / Fold change vs veh, BIVM-ERCC5 /// ERCC5 / RFU, ILF3 / Fold change vs veh, ILF3 / RFU 11762660_at / Fold change /veh 11762660_at / RFU VCAN (11757783_s_at) / Fold change /veh VCAN (11757783_s_at) / RFU DDX43 (11728927_at) / Fold change /veh DDX43 (11728927_at) / RFU KRT8 (11758188_x_at) / Fold change /veh KRT8 (11758188_x_at) / RFU NKD1 (11759106_at) / Fold change /veh NKD1 (11759106_at) / RFU SRD5A1 (11742802_a_at) / Fold change /veh SRD5A1 (11742802_a_at) / RFU TPSAB1 /// TPSB2 (11721975_s_at) / Fold change /veh TPSAB1 /// TPSB2 (11721975_s_at) / RFU GSTM3 (11746129_a_at) / Fold change /veh GSTM3 (11746129_a_at) / RFU IL23R (11737362_x_at) / Fold change /veh IL23R (11737362_x_at) / RFU TMEM51 (11727254_a_at) / Fold change /veh TMEM51 (11727254_a_at) / RFU PIWIL2 (11732686_x_at) / Fold change /veh PIWIL2 (11732686_x_at) / RFU ORM1 (11744905_x_at) / Fold change /veh ORM1 (11744905_x_at) / RFU CCDC152 (11743942_at) / Fold change /veh CCDC152 (11743942_at) / RFU ECM1 (11717891_a_at) / Fold change /veh ECM1 (11717891_a_at) / RFU IL23R (11748794_a_at) / Fold change /veh IL23R (11748794_a_at) / RFU TNFAIP8L3 (11732012_x_at) / Fold change /veh TNFAIP8L3 (11732012_x_at) / RFU MBOAT4 (11741988_at) / Fold change /veh MBOAT4 (11741988_at) / RFU 11764193_at / Fold change /veh 11764193_at / RFU TMEM53 (11763286_at) / Fold change /veh TMEM53 (11763286_at) / RFU MAGEB2 (11727129_at) / Fold change /veh MAGEB2 (11727129_at) / RFU TMEM200A (11744735_a_at) / Fold change /veh TMEM200A (11744735_a_at) / RFU CCDC152 (11751479_a_at) / Fold change /veh CCDC152 (11751479_a_at) / RFU FAM211A (11726209_a_at) / Fold change /veh FAM211A (11726209_a_at) / RFU RGS16 (11746705_a_at) / Fold change /veh RGS16 (11746705_a_at) / RFU VCAN (11755009_s_at) / Fold change /veh VCAN (11755009_s_at) / RFU RHOB (11743442_s_at) / Fold change /veh RHOB (11743442_s_at) / RFU RGS16 (11720943_a_at) / Fold change /veh RGS16 (11720943_a_at) / RFU RGS16 (11720944_at) / Fold change /veh RGS16 (11720944_at) / RFU, VPS4B / Fold change vs veh, VPS4B / RFU, CREB1 / Fold change vs veh, CREB1 / RFU, DNAJC13 / Fold change vs veh, DNAJC13 / RFU, GNAQ / Fold change vs veh, GNAQ / RFU, CDK5R1 / Fold change vs veh, CDK5R1 / RFU, ZRANB3 / Fold change vs veh, ZRANB3 / RFU, CUL4A / Fold change vs veh, CUL4A / RFU, CCNY / Fold change vs veh, CCNY / RFU, UFL1 / Fold change vs veh, UFL1 / RFU, COG3 / Fold change vs veh, COG3 / RFU, DIAPH2 / Fold change vs veh, DIAPH2 / RFU, SKA2 / Fold change vs veh, SKA2 / RFU, AFF3 / Fold change vs veh, AFF3 / RFU, LMF1 / Fold change vs veh, LMF1 / RFU, IPO11 / Fold change vs veh, IPO11 / RFU, DFFB / Fold change vs veh, DFFB / RFU, FOXP1 / Fold change vs veh, FOXP1 / RFU, CARD8 / Fold change vs veh, CARD8 / RFU, STRN3 / Fold change vs veh, STRN3 / RFU, ADK / Fold change vs veh, ADK / RFU, RASSF2 / Fold change vs veh, RASSF2 / RFU, WIPF1 / Fold change vs veh, WIPF1 / RFU, LARP1B / Fold change vs veh, LARP1B / RFU, RASA1 / Fold change vs veh, RASA1 / RFU, RB1 / Fold change vs veh, RB1 / RFU, PPFIA1 / Fold change vs veh, PPFIA1 / RFU, MAT2A / Fold change vs veh, MAT2A / RFU, CCT5 / Fold change vs veh, CCT5 / RFU, WDR92 / Fold change vs veh, WDR92 / RFU, CUX1 / Fold change vs veh, CUX1 / RFU, TTC7A / Fold change vs veh, TTC7A / RFU, TMEM135 / Fold change vs veh, TMEM135 / RFU, DEPTOR / Fold change vs veh, DEPTOR / RFU, CPM / Fold change vs veh, CPM / RFU, DNAJB6 / Fold change vs veh, DNAJB6 / RFU, CACNA2D3 / Fold change vs veh, CACNA2D3 / RFU, DTX4 / Fold change vs veh, DTX4 / RFU, TFCP2 / Fold change vs veh, TFCP2 / RFU, GMCL1 /// GMCL1P1 / Fold change vs veh, GMCL1 /// GMCL1P1 / RFU, AEBP2 / Fold change vs veh, AEBP2 / RFU, SNHG1 /// SNORD22 /// SNORD25 /// SNORD26 /// SNORD27 /// SNORD28 /// SNORD29 /// SNORD31 / Fold change vs veh, SNHG1 /// SNORD22 /// SNORD25 /// SNORD26 /// SNORD27 /// SNORD28 /// SNORD29 /// SNORD31 / Fold change (Aza/veh), C12orf56 (ProbeSet 11735607_a_at) / Fold change (ACY-1035/veh), C12orf56 (ProbeSet 11735607_a_at) / Fold change (Aza/veh), FGFR1OP (ProbeSet 11751329_s_at) / Fold change (ACY-1035/veh), FGFR1OP (ProbeSet 11751329_s_at) / Fold change (Aza/veh), VPS36 (ProbeSet 11739960_a_at) / Fold change (ACY-1035/veh), VPS36 (ProbeSet 11739960_a_at) / RFU SYPL1 (11715823_x_at) / Fold change /veh SYPL1 (11715823_x_at) / RFU IGFBP7 (11715501_s_at) / Fold change /veh IGFBP7 (11715501_s_at) / RFU REEP3 (11722064_at) / Fold change /veh REEP3 (11722064_at) / RFU IGLL1 (11728026_x_at) / Fold change /veh IGLL1 (11728026_x_at): dose or concentration left out as unconfirmed
Conditions: ProbeSet 11733176_x_at; LIST B

`Nc1ccc(-c2cccs2)cc1NC(=O)c1ccc2c(c1)cc(C1CC1)n2CCN1CCOCC1` [ACY-1035] was tested, and the “Fold change vs veh, ZNF507” value was 0.90.
